In patent publication US10472386B2, “Bile acid derivatives as FXR agonists and methods of use thereof” (priority 2017, dated 2019):

biological target: T1, human FXR (NR1H4) (Homo sapiens, UniProt Q96RI1); assay: Human FXR (NR1H4) Assay (Gal4 promoter driven luciferase reporter, Indigo Bioscience kit IB00601); format: cell-based; conditions: FXR agonistic potency; CHO reporter cells expressing human NR1H4; 22 hours incubation; luciferase readout
T1 sequence (Q96RI1 1-486): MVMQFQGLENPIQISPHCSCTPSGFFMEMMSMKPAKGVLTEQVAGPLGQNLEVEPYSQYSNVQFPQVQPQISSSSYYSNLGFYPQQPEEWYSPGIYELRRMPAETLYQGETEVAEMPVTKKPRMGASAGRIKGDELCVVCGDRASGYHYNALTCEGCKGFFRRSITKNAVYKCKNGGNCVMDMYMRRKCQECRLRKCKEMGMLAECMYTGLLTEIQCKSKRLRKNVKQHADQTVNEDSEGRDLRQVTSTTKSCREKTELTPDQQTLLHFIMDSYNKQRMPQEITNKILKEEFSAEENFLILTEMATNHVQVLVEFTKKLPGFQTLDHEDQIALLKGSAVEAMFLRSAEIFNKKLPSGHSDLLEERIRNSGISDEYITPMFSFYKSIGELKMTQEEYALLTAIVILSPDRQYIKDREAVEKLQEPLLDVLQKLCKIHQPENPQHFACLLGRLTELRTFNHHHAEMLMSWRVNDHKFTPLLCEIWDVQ
Excerpt: Determination of a ligand mediated Gal4 promoter driven transactivation to quantify ligand binding mediated activation of FXR. FXR Reporter Assay kit purchased from Indigo Bioscience (Catalogue number: IB00601) to determine the potency and efficacy of compound developed by Enanta that can induce FXR activation. The principle application of this reporter assay system is to quantify functional activity of human FXR. The assay utilizes non-human mammalian cells, CHO (Chinese hamster ovary) cells engineered to express human NR1H4 protein (referred to as FXR). Reporter cells also incorporate the cDNA encoding beetle luciferase which catalyzes the substrates and yields photon emission. Luminescence intensity of the reaction is quantified using a plate-reading luminometer, Envision. Reporter Cells include the luciferase reporter gene functionally linked to an FXR responsive promoter. Thus, quantifying changes in luciferase expression in the treated reporter cells provides a sensitive surrogate measure of the changes in FXR activity. […] The assay is according to the manufacturer's instructions. In brief, the assay was performed in white, 96 well plates using final volume of 100 uL containing cells with different doses of compounds. Retrieve Reporter Cells from −80° C. storage. Perform a rapid thaw of the frozen cells by transferring a 10 ml volume of 37° C. cell recovery medium into the tube of frozen cells. Recap the tube of Reporter Cells and immediately place it in a 37° C. water bath for 5-10 minutes. Retrieve the tube of Reporter Cell Suspension from the water bath. Sanitize the outside surface of the tube with a 70% alcohol swab, and then transfer it into the cell culture hood. Dispense 90 μl of cell suspension into each well of the 96-well Assay Plate. Transfer the plate into 37° C. incubator, allowing the cells adherent to the bottom of the well. Dilute compounds in Dilution Plate (DP), and administrate to cells at Assay Plate (AP). DMSO content of the samples was kept at 0.2%. Cells were incubated for additional 22 hours before luciferase activities were measured. Thirty minutes before intending to quantify FXR activity, remove Detection Substrate and Detection Buffer from the refrigerator and place them in a low-light area so that they may equilibrate to room temperature. Remove the plate's lid and discard all media contents by ejecting it into an appropriate waste container. Gently tap the inverted plate onto a clean absorbent paper towel to remove residual droplets. Cells will remain tightly adhered to well bottoms. Add 100 μl of luciferase detection reagent to each well of the assay plate. Allow the assay plate to rest at room temperature for at least 5 minutes following the addition of LDR. Set the instrument (Envision) to perform a single 5 second “plate shake” prior to reading the first assay well. Read time may be 0.5 second (500 mSec) per well.

How did the EC50 turn out when `C[C@H](COC(=O)NS(=O)(=O)c1ccc(OC(C)(C)C)cc1)[C@H]1CC[C@H]2[C@@H]3[C@H](O)C[C@@H]4C[C@H](O)CC[C@]4(C)[C@H]3CC[C@]12C` [Example 2] was run?
The EC50 was 10 to 100 nM.

`CC(C)Oc1ccc(S(=O)(=O)NC(=O)OC[C@@H](C)[C@H]2CC[C@H]3[C@@H]4[C@H](O)C[C@@H]5C[C@H](O)CC[C@]5(C)[C@H]4CC[C@]23C)cc1` [Example 3] was tested. Which EC50 did it give?
Its EC50 is greater than 100 nM.

Which EC50 does the source give for `CC[C@H]1[C@@H](O)[C@@H]2[C@H](CC[C@]3(C)[C@@H]([C@H](C)COC(=O)NS(=O)(=O)c4ccc(OC(C)C)cc4)CC[C@@H]23)[C@@]2(C)CC[C@@H](O)C[C@@H]12` [Example 4] here?
Its EC50 is less than 1 nM.

With `CC[C@H]1[C@@H](O)[C@@H]2[C@H](CC[C@]3(C)[C@@H]([C@H](C)COC(=O)NS(=O)(=O)c4ccc5c(c4)CCC(C)(C)O5)CC[C@@H]23)[C@@]2(C)CC[C@@H](O)C[C@@H]12` [Example 5] as the molecule, how does the EC50 read?
The EC50 was less than 1 nM.

`CC[C@H]1[C@@H](O)[C@@H]2[C@H](CC[C@]3(C)[C@@H]([C@H](C)COC(=O)NS(=O)(=O)c4ccc5c(c4)CC(C)(C)O5)CC[C@@H]23)[C@@]2(C)CC[C@@H](O)C[C@@H]12` [Example 6] was tested. Which EC50 did it give?
The EC50 was less than 1 nM.

`CC[C@H]1[C@@H](O)[C@@H]2[C@H](CC[C@]3(C)[C@@H]([C@H](C)COC(=O)NS(=O)(=O)c4ccc(OC5CC5)cc4)CC[C@@H]23)[C@@]2(C)CC[C@@H](O)C[C@@H]12` [Example 7] was tested. Which EC50 did it give?
Its EC50 is less than 1 nM.

How did the EC50 turn out when `CC[C@H]1[C@@H](O)[C@@H]2[C@H](CC[C@]3(C)[C@@H]([C@H](C)COC(=O)NS(=O)(=O)c4ccc(OC5CCC5)cc4)CC[C@@H]23)[C@@]2(C)CC[C@@H](O)C[C@@H]12` [Example 8] was run?
Its EC50 is less than 1 nM.

Which EC50 does the source give for `CC[C@H]1[C@@H](O)[C@@H]2[C@H](CC[C@]3(C)[C@@H]([C@H](C)COC(=O)NS(=O)(=O)c4ccc(OC5CCCC5)cc4)CC[C@@H]23)[C@@]2(C)CC[C@@H](O)C[C@@H]12` [Example 9] here?
The EC50 was less than 1 nM.

How did the EC50 turn out when `CC[C@H]1[C@@H](O)[C@@H]2[C@H](CC[C@]3(C)[C@@H]([C@H](C)COC(=O)NS(=O)(=O)c4ccc(OC5(C)CCCC5)cc4)CC[C@@H]23)[C@@]2(C)CC[C@@H](O)C[C@@H]12` [Example 10] was run?
Its EC50 is less than 1 nM.

How did the EC50 turn out when `CC[C@H]1[C@@H](O)[C@@H]2[C@H](CC[C@]3(C)[C@@H]([C@H](C)COC(=O)NS(=O)(=O)c4ccc(OC5CCCCC5)cc4)CC[C@@H]23)[C@@]2(C)CC[C@@H](O)C[C@@H]12` [Example 11] was run?
Its EC50 is 1 to 10 nM.

With `CC[C@H]1[C@@H](O)[C@@H]2[C@H](CC[C@]3(C)[C@@H]([C@H](C)COC(=O)NS(=O)(=O)c4ccc(OC5(C)CCCCC5)cc4)CC[C@@H]23)[C@@]2(C)CC[C@@H](O)C[C@@H]12` [Example 12] as the molecule, how does the EC50 read?
The EC50 was less than 1 nM.

With `CC[C@H]1[C@@H](O)[C@@H]2[C@H](CC[C@]3(C)[C@@H]([C@H](C)COC(=O)NS(=O)(=O)c4ccc(OC(C)C)c(C)c4)CC[C@@H]23)[C@@]2(C)CC[C@@H](O)C[C@@H]12` [Example 13] as the molecule, how does the EC50 read?
The EC50 was less than 1 nM.

Which EC50 does the source give for `CCOc1ccc(S(=O)(=O)NC(=O)OC[C@@H](C)[C@H]2CC[C@H]3[C@@H]4[C@H](O)[C@H](CC)[C@@H]5C[C@H](O)CC[C@]5(C)[C@H]4CC[C@]23C)cc1` [Example 14] here?
Its EC50 is less than 1 nM.

How did the EC50 turn out when `CCCOc1ccc(S(=O)(=O)NC(=O)OC[C@@H](C)[C@H]2CC[C@H]3[C@@H]4[C@H](O)[C@H](CC)[C@@H]5C[C@H](O)CC[C@]5(C)[C@H]4CC[C@]23C)cc1` [Example 15] was run?
Its EC50 is less than 1 nM.

For `CC[C@H]1[C@@H](O)[C@@H]2[C@H](CC[C@]3(C)[C@@H]([C@H](C)COC(=O)NS(=O)(=O)c4ccc(O[C@@H](C)CC)cc4)CC[C@@H]23)[C@@]2(C)CC[C@@H](O)C[C@@H]12` [Example 16], which EC50 is on record?
The EC50 was less than 1 nM.

How did the EC50 turn out when `CC[C@H]1[C@@H](O)[C@@H]2[C@H](CC[C@]3(C)[C@@H]([C@H](C)COC(=O)NS(=O)(=O)c4ccc(O[C@H](C)CC)cc4)CC[C@@H]23)[C@@]2(C)CC[C@@H](O)C[C@@H]12` [Example 17] was run?
Its EC50 is less than 1 nM.

How did the EC50 turn out when `CC[C@H]1[C@@H](O)[C@@H]2[C@H](CC[C@]3(C)[C@@H]([C@H](C)COC(=O)NS(=O)(=O)c4cc(C)c(OC(C)C)c(C)c4)CC[C@@H]23)[C@@]2(C)CC[C@@H](O)C[C@@H]12` [Example 18] was run?
The EC50 was less than 1 nM.

`CCC(CC)Oc1ccc(S(=O)(=O)NC(=O)OC[C@@H](C)[C@H]2CC[C@H]3[C@@H]4[C@H](O)[C@H](CC)[C@@H]5C[C@H](O)CC[C@]5(C)[C@H]4CC[C@]23C)cc1` [Example 19] was tested. Which EC50 did it give?
The EC50 was 10 to 100 nM.

For `CC[C@H]1[C@@H](O)[C@@H]2[C@H](CC[C@]3(C)[C@@H]([C@H](C)COC(=O)NS(=O)(=O)c4ccc(OCC(C)(C)C)cc4)CC[C@@H]23)[C@@]2(C)CC[C@@H](O)C[C@@H]12` [Example 20], which EC50 is on record?
The EC50 was 1 to 10 nM.

With `CCCCOc1ccc(S(=O)(=O)NC(=O)OC[C@@H](C)[C@H]2CC[C@H]3[C@@H]4[C@H](O)[C@H](CC)[C@@H]5C[C@H](O)CC[C@]5(C)[C@H]4CC[C@]23C)cc1` [Example 21] as the molecule, how does the EC50 read?
Its EC50 is 1 to 10 nM.

With `CC[C@H]1[C@@H](O)[C@@H]2[C@H](CC[C@]3(C)[C@@H]([C@H](C)COC(=O)NS(=O)(=O)c4ccc(OC(C)(C)C)cn4)CC[C@@H]23)[C@@]2(C)CC[C@@H](O)C[C@@H]12` [Example 22] as the molecule, how does the EC50 read?
Its EC50 is less than 1 nM.

With `CC[C@H]1[C@@H](O)[C@@H]2[C@H](CC[C@]3(C)[C@@H]([C@H](C)COC(=O)NS(=O)(=O)c4ccc(OC(F)(F)F)cc4)CC[C@@H]23)[C@@]2(C)CC[C@@H](O)C[C@@H]12` [Example 23] as the molecule, how does the EC50 read?
Its EC50 is greater than 100 nM.

With `CC[C@H]1[C@@H](O)[C@@H]2[C@H](CC[C@]3(C)[C@@H]([C@H](C)COC(=O)NS(=O)(=O)c4ccc(OC(C)(C)C)cc4)CC[C@@H]23)[C@@]2(C)CC[C@@H](O)C[C@@H]12` [Example 24] as the molecule, how does the EC50 read?
Its EC50 is less than 1 nM.

How did the EC50 turn out when `CC[C@H]1[C@@H](O)[C@@H]2[C@H](CC[C@]3(C)[C@@H]([C@H](C)COC(=O)NS(=O)(=O)c4ccc(Oc5ccccc5)cc4)CC[C@@H]23)[C@@]2(C)CC[C@@H](O)C[C@@H]12` [Example 25] was run?
The EC50 was greater than 100 nM.

How did the EC50 turn out when `CC[C@H]1[C@@H](O)[C@@H]2[C@H](CC[C@]3(C)[C@@H]([C@H](C)COC(=O)NS(=O)(=O)c4ccc(O)cc4)CC[C@@H]23)[C@@]2(C)CC[C@@H](O)C[C@@H]12` [Example 26] was run?
Its EC50 is greater than 100 nM.

Which EC50 does the source give for `CC[C@H]1[C@@H](O)[C@@H]2[C@H](CC[C@]3(C)[C@@H]([C@H](C)COC(=O)NS(=O)(=O)c4ccc(OC)cc4)CC[C@@H]23)[C@@]2(C)CC[C@@H](O)C[C@@H]12` [Example 27] here?
The EC50 was 1 to 10 nM.

Which EC50 does the source give for `CC[C@H]1[C@@H](O)[C@@H]2[C@H](CC[C@]3(C)[C@@H]([C@H](C)COC(=O)NS(=O)(=O)c4cnc(OC(C)C)nc4)CC[C@@H]23)[C@@]2(C)CC[C@@H](O)C[C@@H]12` [Example 28] here?
The EC50 was 10 to 100 nM.

With `CC[C@H]1[C@@H](O)[C@@H]2[C@H](CC[C@]3(C)[C@@H]([C@H](C)COC(=O)NS(=O)(=O)c4ccc(OC5(C)CC5)cc4)CC[C@@H]23)[C@@]2(C)CC[C@@H](O)C[C@@H]12` [Example 29] as the molecule, how does the EC50 read?
Its EC50 is less than 1 nM.

Which EC50 does the source give for `CC[C@H]1[C@@H](O)[C@@H]2[C@H](CC[C@]3(C)[C@@H]([C@H](C)COC(=O)NS(=O)(=O)c4ccc(OC(F)(F)C(F)(F)F)cc4)CC[C@@H]23)[C@@]2(C)CC[C@@H](O)C[C@@H]12` [Example 30] here?
The EC50 was 1 to 10 nM.
